{"source": "paper PMC5218480", "about": "(PLoS ONE, 2017)", "tested_on": "MV-4-11 cells", "experiment": "Gene expression microarray analysis (Affymetrix PrimeView) and GSEA", "format": "cell-based, human", "set-up": "RFU PODN (11730768_x_at) / Fold change /veh PODN (11730768_x_at) / RFU LINC00158 (11744669_a_at) / Fold change /veh LINC00158 (11744669_a_at) / RFU DUSP10 (11751237_a_at) / Fold change /veh DUSP10 (11751237_a_at) / RFU ID3 (11757404_x_at) / Fold change /veh ID3 (11757404_x_at) / RFU PLEKHG5 (11737974_s_at) / Fold change /veh PLEKHG5 (11737974_s_at) / RFU LRRC4B (11730491_at) / Fold change /veh LRRC4B (11730491_at) / RFU GIMAP4 (11747438_a_at) / Fold change /veh GIMAP4 (11747438_a_at) / RFU KRT8 (11758183_x_at) / Fold change /veh KRT8 (11758183_x_at) / RFU CNN1 (11734310_a_at) / Fold change /veh CNN1 (11734310_a_at) / RFU VPS37D (11726825_at) / Fold change /veh VPS37D (11726825_at) / RFU C10orf10 (11716522_x_at) / Fold change /veh C10orf10 (11716522_x_at) / RFU KIR2DL2 /// KIR2DL4 /// KIR2DL5A /// KIR2DL5B /// KIR2DS1 /// KIR2DS2 /// KIR2DS3 /// KIR2DS4 /// KIR3DL3 /// KIR3DL3 /// KIR3DS1 (11738374_at) / Fold change /veh KIR2DL2 /// KIR2DL4 /// KIR2DL5A /// KIR2DL5B /// KIR2DS1 /// KIR2DS2 /// KIR2DS3 /// KIR2DS4 /// KIR3DL3 /// KIR3DL3 /// KIR3DS1 (11738374_at) / RFU C1QL1 (11718748_at) / Fold change /veh C1QL1 (11718748_at) / RFU TMPRSS4 (11747572_a_at) / Fold change /veh TMPRSS4 (11747572_a_at) / RFU HAMP (11756126_x_at) / Fold change /veh HAMP (11756126_x_at) / RFU RNFT2 (11725882_a_at) / Fold change /veh RNFT2 (11725882_a_at) / RFU NR4A2 (11747474_a_at) / Fold change /veh NR4A2 (11747474_a_at) / RFU ABCC12 (11746883_a_at) / Fold change /veh ABCC12 (11746883_a_at) / RFU TMEM136 (11760407_x_at) / Fold change /veh TMEM136 (11760407_x_at) / RFU CLDN22 /// WWC2 (11732394_at) / Fold change /veh CLDN22 /// WWC2 (11732394_at) / RFU HLA-DPB1 (11760878_x_at) / Fold change /veh HLA-DPB1 (11760878_x_at) / RFU SPINT1 (11716480_a_at) / Fold change /veh SPINT1 (11716480_a_at) / RFU GAP43 (11754022_s_at) / Fold change /veh GAP43 (11754022_s_at) / RFU A4GNT (11735810_at) / Fold change /veh A4GNT (11735810_at) / RFU PRB3 (11715151_x_at) / Fold change /veh PRB3 (11715151_x_at) / RFU TUBB4B (11761932_at) / Fold change /veh TUBB4B (11761932_at) / RFU CAPN14 (11732068_a_at) / Fold change /veh CAPN14 (11732068_a_at) / RFU TMCC2 (11721928_a_at) / Fold change /veh TMCC2 (11721928_a_at) / RFU IRGQ (11745062_a_at) / Fold change /veh IRGQ (11745062_a_at) / RFU FAM174B (11720279_a_at) / Fold change /veh FAM174B (11720279_a_at) / RFU TMPRSS4 (11748680_a_at) / Fold change /veh TMPRSS4 (11748680_a_at) / RFU FAM212B (11763350_a_at) / Fold change /veh FAM212B (11763350_a_at) / RFU PLEKHG5 (11743358_a_at) / Fold change /veh PLEKHG5 (11743358_a_at) / RFU ZSCAN30 (11745921_a_at) / Fold change /veh ZSCAN30 (11745921_a_at) / RFU CMKLR1 (11741424_a_at) / Fold change /veh CMKLR1 (11741424_a_at) / RFU LOC101060620 /// MAPK8IP1 (11723275_at) / Fold change /veh LOC101060620 /// MAPK8IP1 (11723275_at) / RFU SPTSSB (11747773_x_at) / Fold change /veh SPTSSB (11747773_x_at) / RFU PRSS12 (11739890_at) / Fold change /veh PRSS12 (11739890_at) / RFU BIN1 (11741810_x_at) / Fold change /veh BIN1 (11741810_x_at) / RFU WNT11 (11732464_a_at) / Fold change /veh WNT11 (11732464_a_at) / RFU C10orf10 (11716521_a_at) / Fold change /veh C10orf10 (11716521_a_at) / RFU C5orf56 (11738089_at) / Fold change /veh C5orf56 (11738089_at) / RFU CYB561 (11721691_x_at) / Fold change /veh CYB561 (11721691_x_at) / RFU ANKRD19P (11752326_a_at) / Fold change /veh ANKRD19P (11752326_a_at) / RFU OR2T12 /// OR2T33 /// OR2T8 (11738714_s_at) / Fold change /veh OR2T12 /// OR2T33 /// OR2T8 (11738714_s_at) / RFU VCAN (11748164_a_at) / Fold change /veh VCAN (11748164_a_at) / RFU JSRP1 (11732532_at) / Fold change /veh JSRP1 (11732532_at) / RFU KRTAP10-11 (11738290_x_at) / Fold change /veh KRTAP10-11 (11738290_x_at) / RFU MYO3A (11730013_a_at) / Fold change /veh MYO3A (11730013_a_at) / RFU EBF3 (11725865_a_at) / Fold change /veh EBF3 (11725865_a_at) / RFU CAMK2N1 (11719241_x_at) / Fold change /veh CAMK2N1 (11719241_x_at) / RFU C5orf56 (11738088_a_at) / Fold change /veh C5orf56 (11738088_a_at) / RFU OLFML3 (11715873_a_at) / Fold change /veh OLFML3 (11715873_a_at) / RFU LOC100653217 /// NTM (11731650_a_at) / Fold change /veh LOC100653217 /// NTM (11731650_a_at) / RFU MAPK11 (11762145_a_at) / Fold change /veh MAPK11 (11762145_a_at) / RFU FIZ1 (11724087_x_at) / Fold change /veh FIZ1 (11724087_x_at) / RFU OASL (11726364_x_at) / Fold change /veh OASL (11726364_x_at) / RFU SOX15 (11748057_x_at) / Fold change /veh SOX15 (11748057_x_at) / RFU CD79A (11719716_a_at) / Fold change /veh CD79A (11719716_a_at) / RFU HIST1H1D (11736915_at) / Fold change /veh HIST1H1D (11736915_at) / RFU CASKIN2 (11723855_a_at) / Fold change /veh CASKIN2 (11723855_a_at) / RFU LOC730098 (11760151_x_at) / Fold change /veh LOC730098 (11760151_x_at) / RFU OR4N2 (11742367_at) / Fold change /veh OR4N2 (11742367_at) / RFU PRRT2 (11749266_a_at) / Fold change /veh PRRT2 (11749266_a_at) / RFU SNX32 (11753110_a_at) / Fold change /veh SNX32 (11753110_a_at) / RFU CDHR5 (11726645_a_at) / Fold change /veh CDHR5 (11726645_a_at) / RFU RCAN1 (11760418_a_at) / Fold change /veh RCAN1 (11760418_a_at) / RFU FAM167A (11723789_a_at) / Fold change /veh FAM167A (11723789_a_at) / RFU FAM26E (11764081_at) / Fold change /veh FAM26E (11764081_at) / RFU ISYNA1 (11749810_s_at) / Fold change /veh ISYNA1 (11749810_s_at) / RFU ACY1 (11761880_at) / Fold change /veh ACY1 (11761880_at) / RFU 11764098_at / Fold change /veh 11764098_at / RFU SAMD14 (11745864_x_at) / Fold change /veh SAMD14 (11745864_x_at) / RFU NPB (11741838_a_at) / Fold change /veh NPB (11741838_a_at) / RFU TMPRSS6 (11731388_a_at) / Fold change /veh TMPRSS6 (11731388_a_at) / RFU KRTAP10-2 (11738614_at) / Fold change /veh KRTAP10-2 (11738614_at) / RFU ARHGAP8 /// PRR5-ARHGAP8 (11727945_x_at) / Fold change /veh ARHGAP8 /// PRR5-ARHGAP8 (11727945_x_at) / RFU KRTAP5-7 /// NADSYN1 (11734609_at) / Fold change /veh KRTAP5-7 /// NADSYN1 (11734609_at) / RFU RASL12 (11751679_a_at) / Fold change /veh RASL12 (11751679_a_at) / RFU CDKN2B (11736163_a_at) / Fold change /veh CDKN2B (11736163_a_at) / RFU PRF1 (11729649_at) / Fold change /veh PRF1 (11729649_at) / RFU, ZNF638 /// ZNF638-IT1 / Fold change vs veh, ZNF638 /// ZNF638-IT1 / RFU, PANK3 / Fold change vs veh, PANK3 / RFU, SH3YL1 / Fold change vs veh, SH3YL1 / RFU, ZEB2 / Fold change vs veh, ZEB2 / RFU, NRIP1 / Fold change vs veh, NRIP1 / RFU, PTTG1IP / Fold change vs veh, PTTG1IP / RFU, CAPN2 / Fold change vs veh, CAPN2 / RFU, MED14 / Fold change vs veh, MED14 / RFU, SNORA58 / Fold change vs veh, SNORA58 / RFU, C1orf63 / Fold change vs veh, C1orf63 / RFU, LRRFIP1 / Fold change vs veh, LRRFIP1 / RFU, NDUFAF7 / Fold change vs veh, NDUFAF7 / RFU, SLC12A2 / Fold change vs veh, SLC12A2 / RFU, IBTK / Fold change vs veh, IBTK / RFU, ESF1 / Fold change vs veh, ESF1 / Fold change vs veh, TMEM50B / RFU, TAOK1 / Fold change vs veh, TAOK1 / RFU, ACBD3 / Fold change vs veh, ACBD3 / RFU, TMA16 / Fold change vs veh, TMA16 / RFU, RWDD3 / Fold change vs veh, RWDD3 / RFU, BCAT1 / Fold change vs veh, BCAT1 / RFU, EDEM3 / Fold change vs veh, EDEM3 / RFU, TMEM33 / Fold change vs veh, TMEM33 / RFU, WDR75 / Fold change vs veh, WDR75 / RFU, AHCTF1 / Fold change vs veh, AHCTF1 / RFU, TFRC / Fold change vs veh, TFRC / RFU, ZDHHC17 / Fold change vs veh, ZDHHC17 / RFU, NOM1 / Fold change vs veh, NOM1 / RFU, ARL8B / Fold change vs veh, ARL8B / RFU, ZBTB11 / Fold change vs veh, ZBTB11 / RFU, TAMM41 / Fold change vs veh, TAMM41 / RFU, KIAA1704 /// LOC100996395 / Fold change vs veh, KIAA1704 /// LOC100996395 / RFU, ING1 / Fold change vs veh, ING1 / RFU, TRMT61B / Fold change vs veh, TRMT61B / RFU, FUBP3 / Fold change vs veh, FUBP3 / RFU, TP53 / Fold change vs veh, TP53 / RFU, TNKS2 / Fold change vs veh, TNKS2 / RFU, ZFP14 / Fold change vs veh, ZFP14 / RFU, ACTR2 / Fold change vs veh, ACTR2 / RFU, PPP3R1 / Fold change vs veh, PPP3R1 / RFU, PIK3R1 / Fold change vs veh, PIK3R1 / RFU, HNRNPA1 / Fold change vs veh, HNRNPA1 / RFU, RNF170 / Fold change vs veh, RNF170 / RFU, ZNF28 / Fold change vs veh, ZNF28 / RFU, RNGTT / Fold change vs veh, RNGTT / RFU, OGT / Fold change vs veh, OGT / RFU, BRD1 / Fold change vs veh, BRD1 / RFU, MARS / Fold change vs veh, MARS / RFU, ZNF655 / Fold change vs veh, ZNF655 / RFU, FAHD1 / Fold change vs veh, FAHD1 / RFU, BDP1 / Fold change vs veh, BDP1 / RFU, LRRCC1 / Fold change vs veh, LRRCC1 / RFU, ARID1A / Fold change vs veh, ARID1A / RFU, ZNF146 / Fold change vs veh, ZNF146 / RFU, ZNF330 / Fold change vs veh, ZNF330 / RFU, GPN3 / Fold change vs veh, GPN3 / RFU, C9orf123 / Fold change vs veh, C9orf123 / RFU, N4BP2L2 / Fold change vs veh, N4BP2L2 / RFU, ARFIP1 / Fold change vs veh, ARFIP1 / RFU, FAM179B / Fold change vs veh, FAM179B / RFU, BCL10 / Fold change vs veh, BCL10 / RFU, UHRF1BP1L / Fold change vs veh, UHRF1BP1L / RFU, BET1 / Fold change vs veh, BET1 / RFU, CNOT2 / Fold change vs veh, CNOT2 / RFU, ZNF268 / Fold change vs veh, ZNF268 / Fold change vs veh, ZNF507 / RFU, DGCR2 / Fold change vs veh, DGCR2 / RFU, WDSUB1 / Fold change vs veh, WDSUB1 / Fold change vs veh, HSP90B1 /// MIR3652 / RFU, ADSS / Fold change vs veh, ADSS / RFU, GK / Fold change vs veh, GK / RFU, ZNF148 / Fold change vs veh, ZNF148 / RFU, TAF9 / Fold change vs veh, TAF9 / RFU, SLC1A5 / Fold change vs veh, SLC1A5 / RFU, SLMO2 / Fold change vs veh, SLMO2 / RFU, ABCC4 / Fold change vs veh, ABCC4 / RFU, LOC101060439 /// RAP1B / Fold change vs veh, LOC101060439 /// RAP1B / RFU, RFX7 / Fold change vs veh, RFX7 / RFU, GTPBP10 / Fold change vs veh, GTPBP10 / RFU, CNEP1R1 / Fold change vs veh, CNEP1R1 / RFU, BIVM-ERCC5 /// ERCC5 / Fold change vs veh, BIVM-ERCC5 /// ERCC5 / RFU, ILF3 / Fold change vs veh, ILF3 / RFU 11762660_at / Fold change /veh 11762660_at / RFU VCAN (11757783_s_at) / Fold change /veh VCAN (11757783_s_at) / RFU DDX43 (11728927_at) / Fold change /veh DDX43 (11728927_at) / RFU KRT8 (11758188_x_at) / Fold change /veh KRT8 (11758188_x_at) / RFU NKD1 (11759106_at) / Fold change /veh NKD1 (11759106_at) / RFU SRD5A1 (11742802_a_at) / Fold change /veh SRD5A1 (11742802_a_at) / RFU TPSAB1 /// TPSB2 (11721975_s_at) / Fold change /veh TPSAB1 /// TPSB2 (11721975_s_at) / RFU GSTM3 (11746129_a_at) / Fold change /veh GSTM3 (11746129_a_at) / RFU IL23R (11737362_x_at) / Fold change /veh IL23R (11737362_x_at) / RFU TMEM51 (11727254_a_at) / Fold change /veh TMEM51 (11727254_a_at) / RFU PIWIL2 (11732686_x_at) / Fold change /veh PIWIL2 (11732686_x_at) / RFU ORM1 (11744905_x_at) / Fold change /veh ORM1 (11744905_x_at) / RFU CCDC152 (11743942_at) / Fold change /veh CCDC152 (11743942_at) / RFU ECM1 (11717891_a_at) / Fold change /veh ECM1 (11717891_a_at) / RFU IL23R (11748794_a_at) / Fold change /veh IL23R (11748794_a_at) / RFU TNFAIP8L3 (11732012_x_at) / Fold change /veh TNFAIP8L3 (11732012_x_at) / RFU MBOAT4 (11741988_at) / Fold change /veh MBOAT4 (11741988_at) / RFU 11764193_at / Fold change /veh 11764193_at / RFU TMEM53 (11763286_at) / Fold change /veh TMEM53 (11763286_at) / RFU MAGEB2 (11727129_at) / Fold change /veh MAGEB2 (11727129_at) / RFU TMEM200A (11744735_a_at) / Fold change /veh TMEM200A (11744735_a_at) / RFU CCDC152 (11751479_a_at) / Fold change /veh CCDC152 (11751479_a_at) / RFU FAM211A (11726209_a_at) / Fold change /veh FAM211A (11726209_a_at) / RFU RGS16 (11746705_a_at) / Fold change /veh RGS16 (11746705_a_at) / RFU VCAN (11755009_s_at) / Fold change /veh VCAN (11755009_s_at) / RFU RHOB (11743442_s_at) / Fold change /veh RHOB (11743442_s_at) / RFU RGS16 (11720943_a_at) / Fold change /veh RGS16 (11720943_a_at) / RFU RGS16 (11720944_at) / Fold change /veh RGS16 (11720944_at) / RFU, VPS4B / Fold change vs veh, VPS4B / RFU, CREB1 / Fold change vs veh, CREB1 / RFU, DNAJC13 / Fold change vs veh, DNAJC13 / RFU, GNAQ / Fold change vs veh, GNAQ / RFU, CDK5R1 / Fold change vs veh, CDK5R1 / RFU, ZRANB3 / Fold change vs veh, ZRANB3 / RFU, CUL4A / Fold change vs veh, CUL4A / RFU, CCNY / Fold change vs veh, CCNY / RFU, UFL1 / Fold change vs veh, UFL1 / RFU, COG3 / Fold change vs veh, COG3 / RFU, DIAPH2 / Fold change vs veh, DIAPH2 / RFU, SKA2 / Fold change vs veh, SKA2 / RFU, AFF3 / Fold change vs veh, AFF3 / RFU, LMF1 / Fold change vs veh, LMF1 / RFU, IPO11 / Fold change vs veh, IPO11 / RFU, DFFB / Fold change vs veh, DFFB / RFU, FOXP1 / Fold change vs veh, FOXP1 / RFU, CARD8 / Fold change vs veh, CARD8 / RFU, STRN3 / Fold change vs veh, STRN3 / RFU, ADK / Fold change vs veh, ADK / RFU, RASSF2 / Fold change vs veh, RASSF2 / RFU, WIPF1 / Fold change vs veh, WIPF1 / RFU, LARP1B / Fold change vs veh, LARP1B / RFU, RASA1 / Fold change vs veh, RASA1 / RFU, RB1 / Fold change vs veh, RB1 / RFU, PPFIA1 / Fold change vs veh, PPFIA1 / RFU, MAT2A / Fold change vs veh, MAT2A / RFU, CCT5 / Fold change vs veh, CCT5 / RFU, WDR92 / Fold change vs veh, WDR92 / RFU, CUX1 / Fold change vs veh, CUX1 / RFU, TTC7A / Fold change vs veh, TTC7A / RFU, TMEM135 / Fold change vs veh, TMEM135 / RFU, DEPTOR / Fold change vs veh, DEPTOR / RFU, CPM / Fold change vs veh, CPM / RFU, DNAJB6 / Fold change vs veh, DNAJB6 / RFU, CACNA2D3 / Fold change vs veh, CACNA2D3 / RFU, DTX4 / Fold change vs veh, DTX4 / RFU, TFCP2 / Fold change vs veh, TFCP2 / RFU, GMCL1 /// GMCL1P1 / Fold change vs veh, GMCL1 /// GMCL1P1 / RFU, AEBP2 / Fold change vs veh, AEBP2 / RFU, SNHG1 /// SNORD22 /// SNORD25 /// SNORD26 /// SNORD27 /// SNORD28 /// SNORD29 /// SNORD31 / Fold change vs veh, SNHG1 /// SNORD22 /// SNORD25 /// SNORD26 /// SNORD27 /// SNORD28 /// SNORD29 /// SNORD31 / Fold change (Aza/veh), C12orf56 (ProbeSet 11735607_a_at) / Fold change (ACY-1035/veh), C12orf56 (ProbeSet 11735607_a_at) / Fold change (Aza/veh), FGFR1OP (ProbeSet 11751329_s_at) / Fold change (ACY-1035/veh), FGFR1OP (ProbeSet 11751329_s_at) / Fold change (Aza/veh), VPS36 (ProbeSet 11739960_a_at) / Fold change (ACY-1035/veh), VPS36 (ProbeSet 11739960_a_at) / RFU SYPL1 (11715823_x_at) / Fold change /veh SYPL1 (11715823_x_at) / RFU IGFBP7 (11715501_s_at) / Fold change /veh IGFBP7 (11715501_s_at) / RFU REEP3 (11722064_at) / Fold change /veh REEP3 (11722064_at) / RFU IGLL1 (11728026_x_at) / Fold change /veh IGLL1 (11728026_x_at): dose or concentration left out as unconfirmed", "conditions": "ProbeSet 11727641_at; LIST B", "data": [{"smiles": "Nc1ccc(-c2cccs2)cc1NC(=O)c1ccc2c(c1)cc(C1CC1)n2CCN1CCOCC1", "note": "[ACY-1035]", "values": [{"measurement": "RFU, NOM1", "result": 160.01, "unit": "RFU"}]}]}
